Measured values reported in patent US7279476B2, “Pyrazole-derived kinase inhibitors and uses thereof” (Vertex Pharmaceuticals Incorporated, priority 2001, dated 2007).

Legend:
activated ERK2 = activated ERK2 (Homo sapiens, UniProt P28482); assay: ERK2 inhibition spectrophotometric coupled-enzyme assay; format: biochemical; conditions: 10 nM activated ERK2, 65 μM ATP, 30° C., pH 7.5; read-out: ERK2 Inhibitory Activity (Ki class)
Experimental: Compounds are assayed for the inhibition of ERK2 by a spectrophotometric coupled-enzyme assay (Fox et al (1998) Protein Sci 7, 2249). In this assay, a fixed concentration of activated ERK2 (10 nM) is incubated with various concentrations of the compound in DMSO (2.5%) for 10 min. at 30° C. in 0.1 M HEPES buffer, pH 7.5, containing 10 mM MgCl2, 2.5 mM phosphoenolpyruvate, 200 μM NADH, 150 μg/mL pyruvate kinase, 50 μg/mL lactate dehydrogenase, and 200 μM erktide peptide. The reaction is initiated by the addition of 65 μM ATP. The rate of decrease of absorbance at 340 nm is monitored, which indicates the extent of uninhibited enzyme present in the assay. The IC50 is evaluated from the rate data as a function of inhibitor concentration.
The compound numbers correspond to the compound numbers in Tables 1 and 2.

[1] = test system: Colon cancer cells (HT-29 cell line); assay: ERK inhibition cell proliferation assay (3H-thymidine uptake); format: cell-based; conditions: Homo sapiens, HT-29 cells, 3 days incubation
Experimental: Compounds may be assayed for the inhibition of ERK2 by a cell proliferation assay. In this assay, a complete media is prepared by adding 10% fetal bovine serum and penicillin/streptomycin solution to RPMI 1640 medium (JRH Biosciences). Colon cancer cells (HT-29 cell line) are added to each of 84 wells of a 96 well plate at a seeding density of 10,000 cells/well/150 μL. The cells are allowed to attach to the plate by incubating at 37° C. for 2 hours. A solution of test compound is prepared in complete media by serial dilution to obtain the following concentrations: 20 μM, 6.7 μM, 2.2 μM, 0.74 μM, 0.25 μM, and 0.08 μM. The test compound solution (50 μL) is added to each of 72 cell-containing wells. To the 12 remaining cell-containing wells, only complete media (200 μL) is added to form a control group in order to measure maximal proliferation. To the remaining 12 empty wells, complete media is added to form a vehicle control group in order to measure background. The plates are incubated at 37° C. for 3 days. A stock solution of ^3H-thymidine (1 mCi/mL, New England Nuclear, Boston, Mass.) is diluted to 20 μCi/mL in RPMI medium then 20 μL of this solution is added to each well. The plates are further incubated at 37° C. for 8 hours then harvested and analyzed for ^3H-thymidine uptake using a liquid scintillation counter.

AKT = AKT inhibition standard coupled enzyme assay; format: biochemical; conditions: screened at 30 μM compound, 45 nM AKT, 170 μM ATP; compounds with greater than 50% inhibition titrated
Experimental: Compounds were screened for their ability to inhibit AKT using a standard coupled enzyme assay (Fox et al., Protein Sci., (1998) 7, 2249). Assays were carried out in a mixture of 100 mM HEPES 7.5, 10 mM MgCl2, 25 mM NaCl, 1 mM DTT and 1.5% DMSO. Final substrate concentrations in the assay were 170 μM ATP (Sigma Chemicals) and 200 μM peptide (RPRAATF, American Peptide, Sunnyvale, Calif.). Assays were carried out at 30° C. and 45 nM AKT. Final concentrations of the components of the coupled enzyme system were 2.5 mM phosphoenolpyruvate, 300 μM NADH, 30 μg/ML pyruvate kinase and 10 μg/ml lactate dehydrogenase.
An assay stock buffer solution was prepared containing all of the reagents listed above, with the exception of AKT, DTT, and the test compound of interest. 56 μl of the stock solution was placed in a 384 well plate followed by addition of 1 μl of 2 mM DMSO stock containing the test compound (final compound concentration 30 μM). The plate was preincubated for about 10 minutes at 30° C. and the reaction initiated by addition of 10 μl of enzyme (final concentration 45 nM) and 1 mM DTT. Rates of reaction were obtained using a BioRad Ultramark plate reader (Hercules, Calif.) over a 5 minute read time at 30° C.

Sequence of activated ERK2 (P28482 whole entry): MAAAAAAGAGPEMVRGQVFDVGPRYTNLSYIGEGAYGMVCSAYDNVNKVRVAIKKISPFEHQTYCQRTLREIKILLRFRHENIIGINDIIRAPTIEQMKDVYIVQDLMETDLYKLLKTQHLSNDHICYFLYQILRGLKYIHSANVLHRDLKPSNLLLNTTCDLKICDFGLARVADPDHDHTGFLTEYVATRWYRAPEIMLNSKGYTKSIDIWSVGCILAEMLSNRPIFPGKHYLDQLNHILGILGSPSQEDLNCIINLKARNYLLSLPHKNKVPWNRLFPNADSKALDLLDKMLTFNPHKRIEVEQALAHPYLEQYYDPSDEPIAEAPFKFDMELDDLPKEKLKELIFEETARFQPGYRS

SMILES	Ki (activated ERK2)	IC50 [1]	inhibit AKT (AKT)
O=C(NCc1ccc(-c2cn[nH]c2-c2c[nH]c(C(=O)N[C@H](CO)c3ccc(F)c(Cl)c3)c2)cc1Cl)O[C@H]1CCOC1 [II-7]	< 1000 nM	–	–
CC(=O)N1CCC[C@H]1C(=O)NCc1ccc(-c2cn[nH]c2-c2c[nH]c(C(=O)NC(CO)c3ccc(F)c(Cl)c3)c2)cc1Cl (some centres unmarked) [II-3]	< 1000 nM	–	–
O=C(CCCCCNc1ccc([N+](=O)[O-])c2nonc12)NCc1ccc(-c2cn[nH]c2-c2c[nH]c(C(=O)N[C@H](CO)c3ccc(F)c(Cl)c3)c2)cc1Cl [II-5]	< 1000 nM	–	–
O=C(N[C@H](CO)c1ccccc1)c1cc(-c2[nH]ncc2-c2ccc(C(=O)N3CCOCC3)c(Cl)c2)c[nH]1 [II-1]	< 1000 nM	< 10000 nM	–
CC(=O)N1CCC[C@@H]1C(=O)NCc1ccc(-c2cn[nH]c2-c2c[nH]c(C(=O)NC(CO)c3ccc(F)c(Cl)c3)c2)cc1Cl (some centres unmarked) [II-4]	< 1000 nM	–	–
CC(=O)N1C[C@H](O)C[C@H]1C(=O)NCc1ccc(-c2c[nH]nc2-c2c[nH]c(C(=O)N[C@H](CO)c3ccc(F)c(Cl)c3)c2)cc1Cl (stereo in doubt) [II-2, 4-[4-(4-{[(1-Acetyl-4-hydroxy-pyrrolidine-2-carbonyl)-amino]-methyl}-3-chloro-phenyl)-1H-pyrazol-3-yl]-1H-pyrrole-2-carboxylic acid [1-(3-chloro-4-fluoro-phenyl)-2-hydroxy-ethyl]-amide]	< 1000 nM	–	–
O=C(N[C@H](CO)c1ccc(F)c(Cl)c1)c1cc(-c2n[nH]cc2-c2ccc(CN3CCOCC3)c(Cl)c2)c[nH]1 [II-6, 4-[4-(3-Chloro-4-morpholin-4-ylmethyl-phenyl)-1H-pyrazol-3-yl]-1H-pyrrole-2-carboxylic acid [1-(3-chloro-4-fluoro-phenyl)-2-hydroxy-ethyl]-amide]	< 1000 nM	< 10000 nM	inhibit AKT

Further lines, results first:

Ki (activated ERK2)	IC50 [1]	inhibit AKT (AKT)	SMILES
< 1000 nM	–	–	O=C(N[C@H](CO)c1ccc(F)c(Cl)c1)c1cc(-c2n[nH]cc2-c2ccc(CN(Cc3cc[n+]([O-])cc3)Cc3cc[n+](O)cc3)c(Cl)c2)c[nH]1 [II-9, 4-[4-(4-{[Bis-(1-oxy-pyridin-4-ylmethyl)-amino]-methyl}-3-chloro-phenyl)-1H-pyrazol-3-yl]-1H-pyrrole-2-carboxylic acid [1-(3-chloro-4-fluoro-phenyl)-2-hydroxy-ethyl]-amide]
> 5000 nM	–	–	O=C(NCc1ccccc1)c1cc(-c2[nH]ncc2-c2cccc(CN3CCOCC3)c2)c[nH]1 [II-10]
< 1000 nM	–	inhibit AKT	O=C(N[C@H](CO)c1ccc(F)c(Cl)c1)c1cc(-c2n[nH]cc2-c2ccc(CNCc3cc[n+]([O-])cc3)c(Cl)c2)c[nH]1 [II-8]
